Entries after “also recorded” stand apart in the source; their conditions may differ.
How the values were obtained:
[1] = system: CTGF; experiment: CTGF expression induced by TGF-β1 in C2C12 cells, northern blot; assay type: cell-based, mouse; conditions: C2C12, 10 ng/ml TGF-β1, 50 μM andrographolide, 6 hrs
Excerpt: FIG. 1. […] (Vial et al., 2008).

[2] = system: mdx mice; experiment: Survival and proliferation of grafted EGFP satellite cells in mdx mice, EGFP transgene real time qPCR; assay type: in vivo, mouse
Excerpt: Alternatively, it might be possibly that the host muscles have a diminished density of satellite cells, thus, the grafted cells would have no competition for the regenerating muscle fibers or instead the transplanted cells presents a better proliferation performance in the andrographolide treated mice muscles. The first possibility seems to be plausible considering the fibroblast migration data (FIG. 5), while the second hypothesis was excluded since no changes in the number of satellite cells present on isolated EDL myofibers obtained from the same transplanted mice in FIG. 5A were observed, with a mean of 12.5 satellite cells per EDL myofiber, as shown in the FIG. 5B. To test the last possibility, whether grafted cells have improved proliferation rate or survival, we purified satellite cells from the EGFP-transgenic C57BL/6 mice that constitutively expressed the EGFP transgene under the control of the chicken b-actin gene (C57BL/6-Tg(ACTbEGFP)10sba; Act-EGFP). […] The EGFP transgene present in the grafted muscles was detected by real time qPCR in parallel with the mouse b-actin as a housekeeping gene. Since every grafted cell carries only one copy of the EGFP gene (the homozygous EGFP mice die within 2 weeks after birth) the EGFP gene detection constitutes a specific, rapid, and objective quantitation of the grafted cells.

[3] = system: mdx mice; experiment: Evans blue dye uptake in tibialis anterior muscle fibers of mdx mice; assay type: in vivo, mouse; conditions: exercised mdx mice, 1 mg/kg i.p. 3 times per week for 3 months
Experimental: (§1) FIG. 4. Andrographolide reduced skeletal muscle damage in mdx mice. To augment the extent of muscle fibrosis, 3 months old mdx mice were subjected to an exercise protocol for 3 months. Along this period one group was treated with 1 mg/kg andrographolide or vehicle (i.p. injections 3 time per week, 6 animal per group). […] B) Evans blue dye uptake in tibialis anterior muscle fibers from wild-type (WT), Vehicle-treated mdx and andrographolide-treated mdx mice. Nuclei were labeled with Hoechst. Mice were injected i.p. with 1% Evans blue dye 24 hours before muscle fixation. Bar corresponds to 200 μm. […] Values are expressed as mean±SD of three independent experiments, using eight mice for each experimental condition. (*, P<0.05 relative to WT mice; #, P<0.05 relative to Vehicle-treated mdx mice).
Control or mdx (12 weeks old) male mice of C57BL/10 ScSn strain were studied. The animals were kept at room temperature with a […] night-day cycle and fed with pellets and water ad libitum. Experimental exercise was performed for running the mice in a treadmill for three times per week, 30 minutes each time at 12 m/min during 3 or 4 months (De Luca et al., 2005; De Luca et al., 2003). […]
Animals were injected with Evans Blue dye (1% in PBS) and allowed to stay for 24 hours. […] The percentage of Evans blue dye positive fibers was manually counted in a blinded manner (Straub et al., 1997).

[4] = system: mdx mice; experiment: Serum creatine kinase (CK) measurement in mdx mice; assay type: in vivo, mouse; conditions: exercised mdx mice, 1 mg/kg i.p. 3 times per week for 3 months, vs vehicle
Experimental: as §1
Control or mdx (12 weeks old) male mice of C57BL/10 ScSn strain were studied. The animals were kept at room temperature with a […] night-day cycle and fed with pellets and water ad libitum. […]
Mice were anesthetized by isofluorane gas, and blood was obtained from the periorbital vascular plexus directly into microhematocrit tubes (70 μl, Fisher Scientific). […] Serum CK was measured by enzymatic system (Valtek, Chile) according to the manufacturer instructions) (Osses and Brandan, 2002).

C=C1CC[C@@H]2[C@](C)(CO)[C@H](O)CC[C@@]2(C)[C@@H]1C/C=C1/C(=O)OC[C@H]1O [andrographolide]
induction of CTGF expression in response to TGF-β1 [1]: reduced | percentage of grafted cells compared to the fibrotic untreated mice ([2]; 15 days post transplantation, EGFP transgene qPCR): 3 times | transplanted cells that die during the first 2 days ([2]; EGFP satellite cells grafted in mdx mice, in both cases (treated and untreated)): 60% | Evans blue dye uptake in muscle fibers [3]: lower Evans blue dye uptake | serum CK levels [4]: significant reduction; also recorded: decreased
